These results are taken from patent US20260226068A1, “IMIDAZOTRIAZINE IL-17A MODULATORS AND USES THEREOF” (DICE ALPHA, INC., priority 2023, published 2026).

One assay deals with T1, IL-17A/A (Homo sapiens, UniProt Q16552).
T1 construct: purchased Genscript Z03228
T1 sequence (Q16552 24-155): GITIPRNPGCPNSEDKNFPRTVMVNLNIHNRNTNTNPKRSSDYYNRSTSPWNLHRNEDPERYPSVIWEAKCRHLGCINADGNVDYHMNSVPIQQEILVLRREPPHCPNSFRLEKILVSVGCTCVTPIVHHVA
The assay can be described thus: IL-17A/A HEK-Blue cell assay (SEAP reporter). The assay is classed as cell-based. The following applies: HEK-Blue IL-17A reporter cells, IL17A/A 5 ng/mL, 20 hours, SEAP read at A630; read-out: HEK-Blue IL17AA (IC50 for IL-17A/A inhibition).

Another assay deals with T2, IL-17A/F (Homo sapiens, UniProt Q16552+Q96PD4).
T2 construct: purchased R&D Systems
T2 sequence (Q16552 24-155): T1 sequence (Q16552 24-155)
T2 sequence (Q96PD4 31-163): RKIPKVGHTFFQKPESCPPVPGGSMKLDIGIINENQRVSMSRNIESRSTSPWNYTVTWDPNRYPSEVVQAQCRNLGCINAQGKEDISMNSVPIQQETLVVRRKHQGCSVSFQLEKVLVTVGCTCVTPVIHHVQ
The assay can be described thus: IL-17A/F HEK-Blue cell assay (SEAP reporter). The assay is classed as cell-based. The following applies: HEK-Blue IL-17A reporter cells, IL17A/F 5 ng/mL, 20 hours, SEAP read at A630; read-out: HEK-Blue IL17AF (IC50 for IL-17A/F inhibition).

Turning to `CCn1nccc1C(=O)N[C@H](c1cn2nc(C[C@H]3C[C@@H](C(F)(F)F)CNC3=O)c(C(C)C)nc2n1)[C@H]1CC[C@H](C)CC1` [Compound 110, 1-ethyl-N-((1S)-(3-isopropyl-2-(((3R,5R)-2-oxo-5-(trifluoromethyl)piperidin-3-yl)methyl)imidazo[1,2-b][1,2,4]triazin-6-yl)((1r,4S)-4-methylcyclohexyl)methyl)-1H-pyrazole-5-carboxamide], the IC50 on IL-17A/A was below 100 nM; on IL-17A/F, 100 to 1000 nM.
As for `CCn1nccc1C(=O)N[C@H](c1cn2nc(C[C@H]3C[C@@H](C(F)(F)F)CNC3=O)c(N(C)C)nc2n1)[C@H]1CCCC(F)(F)C1` [Compound 117, N—((S)—((S)-3,3-difluorocyclohexyl)(3-(dimethylamino)-2-(((3R,5R)-2-oxo-5-(trifluoromethyl)piperidin-3-yl)methyl)imidazo[1,2-b][1,2,4]triazin-6-yl)methyl)-1-ethyl-1H-pyrazole-5-carboxamide], the results for the IC50 on IL-17A/A and at IL-17A/F were below 100 nM and 100 to 1000 nM, respectively.
In the case of `CCn1nccc1C(=O)N[C@H](c1cn2nc(C[C@H]3C[C@@H](C(F)(F)F)CNC3=O)c(N(C)C)nc2n1)[C@@H]1CCCC(F)(F)C1` [Compound 119, N—((S)—((R)-3,3-difluorocyclohexyl)(3-(dimethylamino)-2-(((3R,5R)-2-oxo-5-(trifluoromethyl)piperidin-3-yl)methyl)imidazo[1,2-b][1,2,4]triazin-6-yl)methyl)-1-ethyl-1H-pyrazole-5-carboxamide], the values for the IC50 on IL-17A/A and at IL-17A/F were below 100 nM and 100 to 1000 nM, respectively.
For `CCn1nccc1C(=O)N[C@H](c1cn2nc(C[C@H]3C[C@@H](C(F)(F)F)CNC3=O)c(N3CCO[C@H](C)C3)nc2n1)[C@H]1CCCC(F)(F)C1` [Compound 121, N—((S)—((S)-3,3-difluorocyclohexyl)(3-((R)-2-methylmorpholino)-2-(((3R,5R)-2-oxo-5-(trifluoromethyl)piperidin-3-yl)methyl)imidazo[1,2-b][1,2,4]triazin-6-yl)methyl)-1-ethyl-1H-pyrazole-5-carboxamide], the IC50 on IL-17A/A and on IL-17A/F was below 100 nM each time.
In the case of `CCn1nccc1C(=O)N[C@H](c1cn2nc(C[C@H]3C[C@@H](C(F)(F)F)CNC3=O)c(N3CCO[C@@H](C)C3)nc2n1)[C@H]1CCCC(F)(F)C1` [Compound 123, N—((S)—((S)-3,3-difluorocyclohexyl)(3-((S)-2-methylmorpholino)-2-(((3R,5R)-2-oxo-5-(trifluoromethyl)piperidin-3-yl)methyl)imidazo[1,2-b][1,2,4]triazin-6-yl)methyl)-1-ethyl-1H-pyrazole-5-carboxamide], the IC50 on IL-17A/A is below 100 nM; at IL-17A/F, 100 to 1000 nM.
The matching figures for `CC(C)n1nccc1C(=O)N[C@H](c1cn2nc(C[C@H]3C[C@@H](C(F)(F)F)CNC3=O)c(C3CCOCC3)nc2n1)[C@@H]1CCCC(F)(F)C1` [Compound 127, N-((1S)—((R)-3,3-difluorocyclohexyl)(2-(((3R,5R)-2-oxo-5-(trifluoromethyl)piperidin-3-yl)methyl)-3-(tetrahydro-2H-pyran-4-yl)imidazo[1,2-b][1,2,4]triazin-6-yl)methyl)-1-isopropyl-1H-pyrazole-5-carboxamide]: below 100 nM and 100 to 1000 nM.
In the case of `O=C(N[C@H](c1cn2nc(C[C@H]3C[C@@H](C(F)(F)F)CNC3=O)c(C3CCOCC3)nc2n1)C1CCC(F)(F)CC1)c1nonc1C1CC1` [Compound 136, 4-cyclopropyl-N-((1S)-(4,4-difluorocyclohexyl)(2-(((3R,5R)-2-oxo-5-(trifluoromethyl)piperidin-3-yl)methyl)-3-(tetrahydro-2H-pyran-4-yl)imidazo[1,2-b][1,2,4]triazin-6-yl)methyl)-1,2,5-oxadiazole-3-carboxamide], the IC50 on IL-17A/A is below 100 nM; on IL-17A/F it was above 1000 nM.
Turning to `CCn1nccc1C(=O)N[C@H](c1cn2nc(C[C@H]3C[C@@H](C(F)(F)F)CNC3=O)c(C3CCOCC3)nc2n1)C(C1CC1)C1CC1` [Compound 137, N-((1S)-2,2-dicyclopropyl-1-(2-(((3R,5R)-2-oxo-5-(trifluoromethyl)piperidin-3-yl)methyl)-3-(tetrahydro-2H-pyran-4-yl)imidazo[1,2-b][1,2,4]triazin-6-yl)ethyl)-1-ethyl-1H-pyrazole-5-carboxamide], the IC50 at IL-17A/A was below 100 nM; at IL-17A/F it was 100 to 1000 nM.
With `CCn1nccc1C(=O)N[C@H](c1cn2nc(C[C@H]3C[C@H](C(F)(F)F)CNC3=O)c(C3CCOCC3)nc2n1)C1CCC(F)(F)CC1` [Compound 140, N-((1S)-(4,4-difluorocyclohexyl)(2-(((3R,5S)-2-oxo-5-(trifluoromethyl)piperidin-3-yl)methyl)-3-(tetrahydro-2H-pyran-4-yl)imidazo[1,2-b][1,2,4]triazin-6-yl)methyl)-1-ethyl-1H-pyrazole-5-carboxamide], the IC50 was below 100 nM on IL-17A/A and 100 to 1000 nM on IL-17A/F.
With `CCn1nccc1C(=O)N[C@H](c1cn2nc(C[C@H]3C[C@@H](C(F)(F)F)CNC3=O)c(CC3CCOCC3)nc2n1)C1CCC(F)(F)CC1` [Compound 141, N-((1S)-(4,4-difluorocyclohexyl)(2-(((3R,5R)-2-oxo-5-(trifluoromethyl)piperidin-3-yl)methyl)-3-((tetrahydro-2H-pyran-4-yl)methyl)imidazo[1,2-b][1,2,4]triazin-6-yl)methyl)-1-ethyl-1H-pyrazole-5-carboxamide], the IC50 at IL-17A/A and on IL-17A/F was below 100 nM each time.
Regarding `CCn1nccc1C(=O)N[C@H](c1cn2nc(C[C@H]3C[C@@H](C(F)(F)F)CNC3=O)c(CN3CCOCC3)nc2n1)C1CCC(F)(F)CC1` [Compound 142, N—((S)-(4,4-difluorocyclohexyl)(3-(morpholinomethyl)-2-(((3R,5R)-2-oxo-5-(trifluoromethyl)piperidin-3-yl)methyl)imidazo[1,2-b][1,2,4]triazin-6-yl)methyl)-1-ethyl-1H-pyrazole-5-carboxamide], the IC50 at IL-17A/A is below 100 nM; at IL-17A/F it was above 1000 nM.
Regarding `CCn1nccc1C(=O)N[C@H](c1cn2nc(C[C@H]3C[C@@H](C(F)(F)F)CNC3=O)c(N(C)C3CC3)nc2n1)C1CCC(F)(F)CC1` [Compound 143, N—((S)-(3-(cyclopropyl(methyl)amino)-2-(((3R,5R)-2-oxo-5-(trifluoromethyl)piperidin-3-yl)methyl)imidazo[1,2-b][1,2,4]triazin-6-yl)(4,4-difluorocyclohexyl)methyl)-1-ethyl-1H-pyrazole-5-carboxamide], the IC50 is below 100 nM on IL-17A/A and 100 to 1000 nM at IL-17A/F.
The matching figures for `CCc1nocc1C(=O)N[C@H](c1cn2nc(C[C@H]3C[C@@H](C(F)(F)F)CNC3=O)c(C3CCOCC3)nc2n1)C1CCC(F)(F)CC1` [Compound 146, N-((1S)-(4,4-difluorocyclohexyl)(2-(((3R,5R)-2-oxo-5-(trifluoromethyl)piperidin-3-yl)methyl)-3-(tetrahydro-2H-pyran-4-yl)imidazo[1,2-b][1,2,4]triazin-6-yl)methyl)-3-ethylisoxazole-4-carboxamide]: below 100 nM and 100 to 1000 nM.
The matching figures for `CC(C)n1nccc1C(=O)N[C@H](c1cn2nc(C[C@H]3C[C@@H](C(F)(F)F)CNC3=O)c(C3CCOCC3)nc2n1)C1CCC(F)(F)CC1` [Compound 147, N-((1S)-(4,4-difluorocyclohexyl)(2-(((3R,5R)-2-oxo-5-(trifluoromethyl)piperidin-3-yl)methyl)-3-(tetrahydro-2H-pyran-4-yl)imidazo[1,2-b][1,2,4]triazin-6-yl)methyl)-1-isopropyl-1H-pyrazole-5-carboxamide]: below 100 nM and 100 to 1000 nM.
Turning to `CCc1nonc1C(=O)N[C@H](c1cn2nc(C[C@H]3C[C@@H](C(F)(F)F)CNC3=O)c(C3CCOCC3)nc2n1)C1CCC(F)(F)CC1` [Compound 149, N-((1S)-(4,4-difluorocyclohexyl)(2-(((3R,5R)-2-oxo-5-(trifluoromethyl)piperidin-3-yl)methyl)-3-(tetrahydro-2H-pyran-4-yl)imidazo[1,2-b][1,2,4]triazin-6-yl)methyl)-4-ethyl-1,2,5-oxadiazole-3-carboxamide], the IC50 was below 100 nM at IL-17A/A and 100 to 1000 nM at IL-17A/F.
The corresponding values for `Cn1nccc1C(=O)N[C@H](c1cn2nc(C[C@H]3C[C@@H](C(F)(F)F)CNC3=O)c(C3CCOCC3)nc2n1)C1CCC(F)(F)CC1` [Compound 150, N-((1S)-(4,4-difluorocyclohexyl)(2-(((3R,5R)-2-oxo-5-(trifluoromethyl)piperidin-3-yl)methyl)-3-(tetrahydro-2H-pyran-4-yl)imidazo[1,2-b][1,2,4]triazin-6-yl)methyl)-1-methyl-1H-pyrazole-5-carboxamide] are below 100 nM and 100 to 1000 nM.
As to `CCn1nccc1C(=O)N[C@H](c1cn2nc(C[C@H]3C[C@@H](C(F)(F)F)NC3=O)c(C3CCOCC3)nc2n1)C1CCC(F)(F)CC1` [Compound 151, N—((S)-(4,4-difluorocyclohexyl)(2-(((3R,5S)-2-oxo-5-(trifluoromethyl)pyrrolidin-3-yl)methyl)-3-(tetrahydro-2H-pyran-4-yl)imidazo[1,2-b][1,2,4]triazin-6-yl)methyl)-1-ethyl-1H-pyrazole-5-carboxamide], the figures for the IC50 at IL-17A/A and at IL-17A/F were below 100 nM and 100 to 1000 nM, respectively.
